We go through 17 compounds from PubChem BioAssay (NCI).

Values joined by “and” are separate entries in the source; they are usually repeats but may differ in a detail not shown here. Equal values may be shown once.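 Briefly, cells in 96-well plates were exposed to five compound concentrations for 48 h, and endpoints were estimated by linear interpolation. Abbreviation: GI50, concentration required for 50% inhibition of growth. TGI: total growth inhibition.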

What all share (experiment): NCI tumour cell line growth inhibition, 48 h
The test system of assay [1] is NCI-H226 lung.
Assay [2] relates to NCI-H522 lung.
The test system of assay [3] is SK-OV-3 ovarian.
Assay [4] deals with MDA-MB-435.
Assay [5] deals with OVCAR-8 ovarian.
The test system of assay [6] is SF-539 CNS.
Assay [7] deals with OVCAR-4 ovarian.
The subject of assay [8] is DU-145 prostate.
The test system of assay [9] is BT-549 breast.
Assay [10] relates to A498 renal.

As for `COc1ccc(Cc2nc3cc(OC)c(OC)cc3c(=O)[nH]2)cc1`, the GI50 is 9.2 µM in assay [1]; 14.5 µM in assay [2]; 88.5 µM in assay [3]; 5.15 µM in assay [4]; 13 µM in assay [5]; 7.97 µM in assay [6]. Also, the GI50 was 25.4 µM in assay [7], 9.38 µM in assay [8], 4.84 µM in [9] and 18.6 µM in assay [10]. The TGI was greater than 100 µM in [1]; greater than 100 µM in [2]; greater than 100 µM in assay [3]; 57.1 µM in assay [4]; greater than 100 µM in assay [5]; 39.7 µM in assay [6]. For the same compound, the TGI was greater than 100 µM in [7], greater than 67 µM in [8], 29.7 µM in [9] and 66.9 µM in assay [10].

`C=CCN=C(N/N=C/c1ccc([N+](=O)[O-])o1)NS(=O)(=O)c1cc(C(=O)Nc2ccccc2)c(Cl)cc1SCC(N)=O`: the GI50 in [1] is 30.8 µM; in [2] it was 27.8 µM; in assay [3], greater than 100 µM; in assay [4], 17.9 µM; in [5], 29.6 µM; in assay [6] it was 18.8 µM. In addition, the GI50 in assay [7] is 53 µM; in assay [8] it was 22.4 µM; in assay [9], 10.4 µM; in [10] it was 77.8 µM. Moreover, the TGI in assay [1] was greater than 100 µM; in [2] it was 67.1 µM; in assay [3] it was greater than 100 µM; in assay [4], 36.7 µM; in assay [5], greater than 100 µM; in assay [6] it was 41.5 µM. Further, the TGI is greater than 100 µM in assay [7], 71.9 µM in assay [8], 31.8 µM in assay [9] and greater than 100 µM in [10].

For the compound `COc1ccc(/C=C/C(C)=N/OCC(=O)Nc2ccc(Cl)cc2)cc1`, the GI50 is 3.38 µM in [1]; 1.81 µM in assay [2]; 5.27 µM in assay [3]; 2.44 µM in assay [4]; 3.52 µM in assay [5]; 3.16 µM in [6]. In addition, the GI50 in assay [7] was 1.97 µM; in assay [8], 4.11 µM; in assay [9], 2.71 µM; in [10], 2.54 µM. Besides, the TGI was 26.7 µM in assay [1]; 8.01 µM in assay [2]; 42.4 µM in [3]; 9.76 µM in assay [4]; 29.5 µM in assay [5]; 13.4 µM in assay [6]. The TGI in assay [7] was determined as 9.96 µM; in assay [8] it was 78.6 µM; in [9], 14.4 µM; in [10], 16.6 µM.

Turning to `CCSc1ncc(Br)c(Sc2nc(N)nc3nc[nH]c23)n1`, the GI50 was 2.59 µM in assay [1]; 3.18 µM in assay [2]; 2.76 µM in [3]; 3.72 µM in assay [4]; 4.54 µM in [5]; 3.52 µM in assay [6]. In addition, the GI50 in assay [7] is 2.29 µM; in assay [8], 2.95 µM; in [9] it was 4.11 µM; in assay [10], 10.1 µM. The TGI in assay [1] is greater than 100 µM; in [2] it was 64.9 µM; in assay [3], 48.9 µM; in [4], greater than 100 µM; in assay [5], greater than 100 µM; in assay [6], 31.5 µM. For the same compound, the TGI in assay [7] was 30.5 µM; in [8] it was 60.9 µM; in assay [9], 67 µM; in assay [10], greater than 100 µM.

With `O=C(Oc1ccc2c(c1)CN(Cc1ccccc1)CO2)c1ccccc1`, the TGI in assay [2] was 22.3 µM; in [3] it was 34 µM; in assay [4], 54.2 µM; in assay [5], 32.9 µM; in assay [6], 32.3 µM; in assay [7] it was 32.8 µM. Moreover, the figures for the TGI in assay [8], in [9] and in [10] were 36.7 µM, 34.1 µM and 31.7 µM, respectively.

Consider `Cc1ccc(C2=C(Cl)C(=O)C(c3ccc(C)cc3)=C(Cl)C2=O)cc1`, for which the TGI in assay [1], in assay [2], in [3], in assay [4], in assay [5] and in assay [6] was greater than 100 µM each time. The TGI in [7], in assay [8], in [9] and in [10] was greater than 100 µM each time.

Take `COc1ccc(/C(C)=C(\c2ccc(Cl)cc2)c2ccc(OCCN3CCCCCC3)cc2)cc1F`: the GI50 in assay [1] is 5.47 µM; in assay [2], 3.92 µM; in [3], 5.05 µM; in assay [4] it was 2.78 µM; in [5], 5.09 µM; in assay [6], 2.18 µM. In addition, the GI50 in [7] was 2.63 µM; in assay [8], 4.47 µM; in assay [9], 2.79 µM. Moreover, the TGI is greater than 16.7 µM in assay [1]; 9.71 µM in [2]; 16.6 µM in assay [3]; 5.77 µM in assay [4]; greater than 16.7 µM in assay [5]; 4.39 µM in [6]. The figures for the TGI in [7], in assay [8] and in assay [9] were 8.09 µM, 15.6 µM and 6.74 µM, respectively.

As to `COC(=O)[C@]1(C)CCC[C@]2(C)[C@@H]1CCC13C[C@@H](C=CO1)[C@@H](C)CC32O` (stereo not given in full), the GI50 in [1] was greater than 100 µM; in [2] it was greater than 100 µM; in assay [3] it was greater than 100 µM; in [4], 23.9 µM; in assay [5], greater than 100 µM; in assay [6] it was 0.0516 µM. The GI50 in [7] is 61.5 µM; in [8] it was 19.9 µM; in [9] it was greater than 100 µM. Besides, the TGI in [1], in assay [2], in assay [3], in [4], in assay [5] and in assay [6] was greater than 100 µM in each case. Also, the TGI is greater than 100 µM in assay [7], 43.5 µM in assay [8] and greater than 100 µM in assay [9].

As for `O=C(OC[C@@H]1CO1)c1cccc2c(=O)c3ccccc3[nH]c12`, the GI50 in assay [1] was 0.301 µM; in assay [2], 0.421 µM; in assay [4] it was 0.281 µM; in [5], 0.166 µM; in assay [6], 0.344 µM; in assay [7] it was 0.671 µM. Moreover, the GI50 in assay [8] is 0.335 µM; in [9], 0.338 µM; in assay [10], 1.76 µM. Further, the TGI turned out to be 1.48 µM in assay [1]; 2.2 µM in [2]; 1.24 µM in assay [4]; 2.78 µM in [5]; 1.97 µM in assay [6]; 4.72 µM in assay [7]. Moreover, the TGI is 1.29 µM in [8], 2.86 µM in [9] and 3.56 µM in assay [10].

Take `OCC#Cc1ccccc1C#Cc1ccc(C#Cc2ccccc2)cc1`: the GI50 in assay [1] is 18.4 µM; in assay [2], 55.2 µM; in [4], 21 µM; in assay [5] it was 23.1 µM; in assay [6], 21.4 µM; in assay [7] it was 20.4 µM. The GI50 in [8] is 16.7 µM; in assay [9], 35.6 µM; in assay [10], 15.6 µM. The TGI in [1] is 43 µM; in assay [2], greater than 100 µM; in assay [4], 49.5 µM; in assay [5] it was 57 µM; in assay [6], 45.6 µM; in assay [7], greater than 100 µM. Moreover, the TGI in [8] is 34.4 µM; in [9], greater than 100 µM; in [10], 30.8 µM.

In the case of `O=C1CCS/C(=N/S(=O)(=O)c2ccc(N3N=C4c5ccccc5CC4C3c3cccs3)cc2)N1Cc1ccccc1` (stereo not given), the GI50 in [1] is 26.5 µM; in [2], 15.9 µM; in [3], 32.9 µM; in assay [4], 21.1 µM; in assay [5], 19.2 µM; in [6] it was 21.8 µM. Further, the GI50 was 49.3 µM in assay [7], 21 µM in assay [8] and 26.2 µM in assay [9]. In addition, the TGI in [1] came out at 59.3 µM; in [2], 40 µM; in [3], 79.6 µM; in assay [4], 44.6 µM; in assay [5], 39.3 µM; in assay [6] it was 44.4 µM. Further, the TGI in assay [7] is greater than 100 µM; in assay [8] it was 52.6 µM; in assay [9], 75.2 µM.

Take `Cc1ccnc(Nc2ccc([N+](=O)[O-])c(NCCN3CCOCC3)n2)c1`: the GI50 in assay [1] was 0.0594 µM; in assay [2] it was 0.00209 µM; in assay [3], 0.00804 µM; in [4] it was 0.00233 µM; in assay [5], 0.0334 µM and 0.0201 µM; in assay [7] it was 0.0151 µM. Also, the GI50 was 0.00693 µM and 0.0284 µM in [8]; 0.0208 µM and 0.0191 µM in assay [9]; 0.00325 µM in [10]. For the same compound, the TGI in assay [2] was 0.00686 µM; in [3], 64.7 µM; in assay [4], 0.0068 µM; in assay [5], greater than 100 µM; in assay [9], 23.4 µM; in assay [10], 0.22 µM.

Regarding `Nc1ncc(C2[C@H](CNC(=O)c3cc(Br)c[nH]3)C(CNC(=O)c3cc(Br)c[nH]3)[C@@H]2c2cnc(N)[nH]2)[nH]1` (stereo not given in full), the GI50 was greater than 50 µM in assay [1]; greater than 50 µM in assay [2]; greater than 50 µM in assay [4]; greater than 50 µM in assay [5]; 8.79 µM in assay [6]; greater than 50 µM in assay [7]. Moreover, the GI50 in [8] is 0.329 µM; in assay [9] it was 6.71 µM; in [10], greater than 50 µM. Besides, the TGI in assay [1], in assay [2], in assay [4], in assay [5], in assay [6] and in [7] was greater than 50 µM throughout. Also, the TGI in assay [8], in assay [9] and in assay [10] was greater than 50 µM each time.

Take `O=C(O)Cn1ccc(=O)c2cc([N+](=O)[O-])ccc21`: the TGI in assay [1], in [2], in assay [3], in [4], in assay [5] and in [6] was greater than 100 µM each time. Also, the TGI in assay [8], in [9] and in assay [10] was greater than 100 µM throughout.

With `C=C(Cn1c2ccccc2c(=O)c2ccccc21)c1ccc(C(=O)Nc2ccccc2N)cc1`, the GI50 was greater than 24.8 µM in [1]; 2.72 µM in assay [2]; 5.99 µM in assay [3]; greater than 100 µM in assay [5]; 3.59 µM in [6]; 0.0786 µM in assay [7]. Also, the GI50 in [8] was greater than 100 µM; in [9] it was 4.07 µM. In addition, the TGI in [1] is greater than 100 µM; in [2], greater than 100 µM; in assay [3] it was greater than 100 µM; in assay [5], greater than 100 µM; in assay [6], greater than 100 µM; in assay [7], 6.06 µM. Further, the TGI was greater than 100 µM in assay [8], greater than 100 µM in assay [9] and greater than 27.2 µM in [10].

Turning to `O=C(Nc1ccc(C(F)(F)F)cc1[N+](=O)[O-])c1cccnc1`, the TGI in [1] was greater than 100 µM; in assay [2], 36.1 µM; in assay [3] it was greater than 100 µM; in assay [4], 2.5 µM; in assay [6] it was 25.5 µM; in assay [7] it was greater than 100 µM. The TGI in [8], in [9] and in [10] was greater than 100 µM in each case.

`C#Cc1cccc(NC(=O)C2CCCN(C(=O)CCl)C2)c1` (stereo not given): the GI50 in assay [1] is greater than 82.5 µM; in [2], 14.7 µM; in assay [3], greater than 82.5 µM; in assay [4], 69.8 µM; in assay [5], 61.8 µM; in assay [6], greater than 82.5 µM. The GI50 in [7] was 19.5 µM; in assay [8] it was greater than 82.5 µM; in assay [9] it was 38.6 µM. For the same compound, the TGI in assay [1] is greater than 82.5 µM; in assay [2], 32.7 µM; in assay [3], greater than 82.5 µM; in assay [4], greater than 82.5 µM; in assay [5] it was greater than 82.5 µM; in assay [6], greater than 82.5 µM. The TGI was 52.8 µM in [7], greater than 82.5 µM in assay [8] and greater than 82.5 µM in assay [9].
